Data as given in patent publication US20220120736A1, “METHODS AND ASSAYS FOR MODULATING GENE TRANSCRIPTION BY MODULATING CONDENSATES” (Whitehead Institute for Biomedical Research, priority 2018, published 2022).

Assays:
[1] = molecular target: T1, OCT4 (FKBP-tagged) (Mus musculus, UniProt P20263+Q8C7D2); experiment: MED1 IF with DNA FISH at Nanog after OCT4 degradation; type: cell-based; details: dTag versus DMSO
T1 construct: an ESC line bearing endogenous knock-in of DNA encoding the FKBP protein fused to OCT4; HA (C); endogenous in cells; host or cells: V6.5 mouse ES cells (Med1-mEGFP background), homozygous Oct4-FKBP knock-in
Protocol: Immunofluorescence was performed as previously above. After incubating the cells with the secondary antibodies, cells were washed three times in PBS for 5 min at RT, fixed with 4% PFA in PBS for 10 min and washed three times in PBS. Cells were incubated in 70% ethanol, 85% ethanol and then 100% ethanol for 1 minute at RT. Probe hybridization mixture was made mixing 7 μL of FISH Hybridization Buffer (Agilent G9400A), 1 μl of FISH probes (see below for region) and 2 μL of water. 5 μL of mixture was added on a slide and coverslip was placed on top (cell-side toward the hybridization mixture). Coverslip was sealed using rubber cement. Once rubber cement solidified, genomic DNA and probes were denatured at 78° C. for 5 minutes and slides were incubated at 16° C. in the dark O/N. The coverslip was removed from slide and incubated in pre-warmed Wash buffer 1 (Agilent, G9401A) at 73° C. for 2 minutes and in Wash Buffer 2 (Agilent, G9402A) for 1 minute at RT. […]
For analysis of RNA FISH with immunofluorescence custom in-house MATLAB™ scripts were written to process and analyze 3D image data gathered in FISH (RNA/DNA) and IF channels. […] The IF signal centered at FISH foci for each FISH and IF pair are then combined and an average intensity projection is calculated, providing averaged data for IF signal intensity within a l×l square centered at FISH foci. […]

[2] = molecular target: T1, OCT4 (FKBP-tagged); experiment: ChIP-seq after OCT4 degradation in OCT4-FKBP ESCs; type: cell-based; details: dTag 24 hours versus DMSO
Protocol: mES were grown to 80% confluence in 2i media. 1% formaldehyde in PBS was used for crosslinking of cells for 15 minutes, followed by quenching with Glycine at a final concentration of 125 mM on ice. Cells were washed with cold PBS and harvested by scraping cells in cold PBS. Collected cells were pelleted at 1000 g for 3 minutes at 4° C., flash frozen in liquid nitrogen and stored at −80° C. All buffers contained freshly prepared cOmplete protease inhibitors (Roche, 11873580001). […] The pellet was resuspended in sonication buffer (20 mM Tris-HCl pH 8.0, 150 mM NaCl, 2 mM EDTA pH 8.0, 0.1% SDS, and 1% Triton X-100, 1 3 protease inhibitors) and then sonicated on a Misonix 3000 sonicator for 10 cycles at 30 s each on ice (18-21 W) with 60 s on ice between cycles. Sonicated lysates were cleared once by centrifugation at 16,000 rcf. for 10 minutes at 4° C. Input material was reserved and the remainder was incubated overnight at 4° C. with magnetic beads bound with antibody (Table S4) to enrich for DNA fragments bound by the indicated factor. […]
ChIP-Seq data were aligned to the mm9 version of the mouse reference genome using bowtie with parameters -k 1 -m 1 -best and -l set to read length. […]

T1 sequence (P20263 with tags, fused parts or gaps): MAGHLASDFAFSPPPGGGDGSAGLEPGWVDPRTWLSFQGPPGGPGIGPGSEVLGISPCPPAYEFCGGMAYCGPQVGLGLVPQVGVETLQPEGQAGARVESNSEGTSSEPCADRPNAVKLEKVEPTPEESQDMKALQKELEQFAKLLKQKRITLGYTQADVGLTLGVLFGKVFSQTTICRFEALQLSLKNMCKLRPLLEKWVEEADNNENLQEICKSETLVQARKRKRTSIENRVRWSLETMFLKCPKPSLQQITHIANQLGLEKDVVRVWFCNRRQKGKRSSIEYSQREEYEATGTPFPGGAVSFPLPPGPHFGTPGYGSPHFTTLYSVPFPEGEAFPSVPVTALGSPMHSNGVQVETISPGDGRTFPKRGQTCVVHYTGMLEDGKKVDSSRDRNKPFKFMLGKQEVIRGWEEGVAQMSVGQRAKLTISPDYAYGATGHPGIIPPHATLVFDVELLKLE
T1 sequence (Q8C7D2 whole entry, the tested form may be a part): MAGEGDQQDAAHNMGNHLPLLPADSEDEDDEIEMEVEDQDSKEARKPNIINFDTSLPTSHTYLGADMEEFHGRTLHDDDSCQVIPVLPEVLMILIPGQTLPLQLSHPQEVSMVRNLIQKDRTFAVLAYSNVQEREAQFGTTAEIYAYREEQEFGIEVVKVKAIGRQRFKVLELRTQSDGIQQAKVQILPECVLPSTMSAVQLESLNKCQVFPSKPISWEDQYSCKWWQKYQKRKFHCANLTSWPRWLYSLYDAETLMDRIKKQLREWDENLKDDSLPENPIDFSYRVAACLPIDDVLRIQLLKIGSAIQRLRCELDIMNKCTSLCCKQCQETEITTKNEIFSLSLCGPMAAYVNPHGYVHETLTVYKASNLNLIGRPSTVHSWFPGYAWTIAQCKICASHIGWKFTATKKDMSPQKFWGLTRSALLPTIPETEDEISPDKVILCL
T1 sequence (Q3U1J4 whole entry partner, the tested form may be a part): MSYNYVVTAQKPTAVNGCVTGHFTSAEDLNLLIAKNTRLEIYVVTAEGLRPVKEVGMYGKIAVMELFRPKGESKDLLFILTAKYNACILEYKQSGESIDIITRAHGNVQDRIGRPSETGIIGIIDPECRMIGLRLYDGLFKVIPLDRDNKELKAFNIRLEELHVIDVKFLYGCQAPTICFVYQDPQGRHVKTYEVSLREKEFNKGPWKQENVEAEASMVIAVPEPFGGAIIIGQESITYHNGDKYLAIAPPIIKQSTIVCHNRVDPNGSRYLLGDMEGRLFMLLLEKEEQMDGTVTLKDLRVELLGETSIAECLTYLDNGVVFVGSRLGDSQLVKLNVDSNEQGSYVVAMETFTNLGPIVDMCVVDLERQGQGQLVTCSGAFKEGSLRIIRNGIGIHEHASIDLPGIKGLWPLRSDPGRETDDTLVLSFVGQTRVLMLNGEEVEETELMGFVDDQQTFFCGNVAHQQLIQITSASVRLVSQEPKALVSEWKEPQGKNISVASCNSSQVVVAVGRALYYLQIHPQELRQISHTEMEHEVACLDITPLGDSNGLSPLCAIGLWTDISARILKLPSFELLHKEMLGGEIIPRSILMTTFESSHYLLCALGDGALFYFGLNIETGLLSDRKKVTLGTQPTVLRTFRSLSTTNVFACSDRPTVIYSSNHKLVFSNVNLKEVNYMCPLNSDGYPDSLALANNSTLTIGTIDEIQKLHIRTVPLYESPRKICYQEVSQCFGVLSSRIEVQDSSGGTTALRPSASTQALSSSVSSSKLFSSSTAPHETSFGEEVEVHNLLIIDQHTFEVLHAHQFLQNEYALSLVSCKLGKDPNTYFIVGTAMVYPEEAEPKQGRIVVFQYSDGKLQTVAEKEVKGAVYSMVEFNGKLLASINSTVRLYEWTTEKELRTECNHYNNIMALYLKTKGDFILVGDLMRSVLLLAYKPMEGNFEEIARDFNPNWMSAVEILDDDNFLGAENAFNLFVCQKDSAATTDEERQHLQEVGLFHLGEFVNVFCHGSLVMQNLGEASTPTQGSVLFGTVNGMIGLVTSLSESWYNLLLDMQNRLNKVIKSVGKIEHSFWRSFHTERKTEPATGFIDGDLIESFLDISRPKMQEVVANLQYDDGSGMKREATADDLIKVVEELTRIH

MED1 condensates at Nanog [1]: reduction in MED1 condensates at Nanog
Structure (SMILES): CC[C@H](C(=O)N1CCCC[C@H]1C(=O)O[C@H](CCc1ccc(OC)c(OC)c1)c1ccccc1OCC(=O)NCCCCCCCCNc1ccc2c(c1)C(=O)N(C1CCC(=O)NC1=O)C2=O)c1cc(OC)c(OC)c(OC)c1 (some centres unmarked) [dTag]
OCT4 and MED1 occupancy at enhancers (SEs versus TEs) [2]: reduction of OCT4 and MEM occupancy at enhancers, with the most profound effects occurring at SEs
